Results on four compounds are retold here after patent US20190247353A1, “ACNE STRAIN-SELECTIVE ANTIBACTERIAL AGENT” (MOMOTANI JUNTENKAN CO., LTD., priority 2016, published 2019).

Converted amounts (≈) assume the structure as drawn. Where two headings read alike, the source gives them in different places. Where only a bound is given, the exact number is not on record here.

Assay type in all cases: cell-based, Propionibacterium acnes
In experiment [1] the test system is HL043PA1 strain (RT5). Briefly: MIC by broth microdilution method, HL043PA1 strain. The settings on record: for MIC: Cutibacterium acnes, read-out: MIC against acne bacterium strain HL043PA1 strain (RT5). As to the method: (§1) An MIC is measured herein according to the broth microdilution method which is the standard method of Japanese Society of Chemotherapy.
(§2) The antibacterial activity of a test substance was determined based on the minimum inhibitory concentration (MIC). An MIC was measured according to the broth microdilution method which is the standard method of Japanese Society of Chemotherapy.
(§3) One-loopful of each acne bacterium strain listed in Table 1 was scraped off and inoculated into 5 mL of a GAM broth slant agar medium (pH 7.0, Nissui Pharmaceutical Co., Ltd.).
The inoculated acne bacterium strain was precultured at 37° C. in a nitrogen atmosphere (anaerobic condition) for 48 hours. […]
(§4) Each fatty acid (Tokyo Chemical Industry Co., Ltd.) listed in Table 2 was dissolved in dimethylsulfoxide (DMSO) as a solvent such that the concentration became 10,000 μg/mL, and used as a test substance.
(§5) Each of strain suspensions (5.0×10^4 cfu/mL) was aliquoted in a 96-well round bottom microplate, each of the test substance (fatty acid concentration 10,000 μg/mL) was added at a 1/10 volume to the aliquot and mixed to prepare measurement samples (fatty acid concentration: 1,000 μg/mL). Measurement samples in 2-fold dilution series were prepared using the strain suspension (fatty acid concentration from 0.48 to 1,000 μg/mL).
(§6) The measurement samples were incubated under an anaerobic condition at 37° C. for 2 days. The presence or absence of a precipitation of test microbial cells after the incubation was examined and the minimum concentration at which the precipitation of microbial cells […] was regarded as the MIC (μg/mL) of the test substance against the acne bacterium strain.

Experiment [2] relates to HL110PA4 strain (RT6). Briefly: MIC by broth microdilution method, HL110PA4 strain. Conditions: Cutibacterium acnes; Example 6, method as Example 1; read-out: MIC against acne bacterium strain HL110 PA4 strain (RT6). The method, then: as §2
(§7) Each of strain suspensions (5.0×10^4 cfu/mL) was aliquoted in a 96-well round bottom microplate, each of the test substance (fatty acid concentration 10,000 μg/mL) was added at a 1/10 volume to the aliquot and mixed to prepare measurement samples (fatty acid concentration: 1,000 μg/mL). Measurement samples in 2-fold dilution series were prepared using the strain suspension (fatty acid concentration from 0.48 to 1,000 μg/mL). Using a sample containing only the solvent (DMSO) as a control, it was confirmed that the influence of the solvent on the growth of each strain could be neglected.
as §6
(§8) The MIC of each of the following test substances was measured substantially in the same manner as in Example 1 (Table 12) except that a suspension of test bacterium strains was prepared using the dominant strain in acne patients (HL005PA1 strain (HM-492^†, RT4 strain), […] (HM-524^†, RT4 strain), HL045PA1 strain (HM-516^†, RT4 strain), or HL043PA2 strain (HM-514^†, RT5 strain)), or the dominant strain in healthy subjects (HL110PA4 strain (HM-555^†, RT6 strain) instead of the dominant strains in acne patients (HL053PA1 strain (RT4 strain) and HL043PA1 strain (RT5 strain)) and the dominant strain in healthy subjects (HL110PA3 strain (RT6 strain) used in Examples 1 to 3.
Background: In broth dilution the organism is exposed to a series of concentrations in liquid medium.

Experiment [3] concerns HL005PA1, HL056PA1, HL045PA1 (RT4) and HL043PA2 (RT5) strains versus HL110PA4 strain (RT6). Briefly: Strain-selective antibacterial activity against different acne bacterium strains (Example 6). Conditions: Example 6 strains.
Text: Herein, “acne strain-selective antibacterial activity” or “strain-selective antibacterial activity” means an index indicating better inhibition of growth of a dominant strain in acne patients compared to that of a dominant strain in healthy subjects. It is expressed by the average value of the values (MICRT6/MICRT4, and MICRT6/MICRTS) obtained by dividing the minimum inhibitory concentration (MIC) of an object substance with respect to the dominant strain in healthy subjects (RT6 strain) (MICRT6) respectively by the MIC of the object substance with respect to the dominant strain in acne patients (RT4 strain) (MICRT4), and by the MIC of the object substance with respect to the dominant strain in acne patients (RT5 strain) (MICRT5).
The strain-selective antibacterial activity of each test substance (Table 2, right-most column) was evaluated based on the following rating criteria (Table 3). When the strain-selective antibacterial activity is indicated by a numerical range, the rating was based on the minimum value thereof.
as §8

Experiment [4] relates to HL005PA1 strain (RT4). In words: MIC by broth microdilution method, HL005PA1 strain. The settings on record: Cutibacterium acnes, PA1; Example 6, method as Example 1; read-out: MIC against acne bacterium strain HL005 PA1 strain (RT4). The method, then:
as §2, §7, §6, §8

Experiment [5] concerns HL110PA3 strain (RT6). Briefly: MIC by broth microdilution method, HL110PA3 strain. Conditions: Cutibacterium acnes, read-out: MIC against acne bacterium strain HL110PA3 strain (RT6). The method, then: as §1, §2, §3
(§9) The inoculated acne bacterium strain was precultured at 37° C. in a nitrogen atmosphere (anaerobic condition) for 48 hours. The precultured microbial cells were diluted in a modified GAM broth liquid medium (pH 6.0) to a concentration of 5.0×10^4 cfu/mL (viable cell count per OD660=1 is 2.0×10^9 cfu/mL), to prepare strain suspensions.
as §4, §5
(§10) […] The presence or absence of a precipitation of test microbial cells after the incubation was examined and the minimum concentration at which the precipitation of microbial cells […] was regarded as the MIC (μg/mL) of the test substance against the acne bacterium strain.

In experiment [6] the test system is HL043PA2 strain (RT5). In words: MIC by broth microdilution method, HL043PA2 strain. The settings on record: Cutibacterium acnes; Example 6, method as Example 1; read-out: MIC against acne bacterium strain HL043 PA2 strain (RT5). The method, then: as §2, §7, §6, §8
Experiment [7] relates to HL053PA1 strain (RT4). In words: MIC by broth microdilution method, HL053PA1 strain. The settings on record: for MIC: Cutibacterium acnes, read-out: MIC against acne bacterium strain HL053PA1 strain (RT4). As to the method:
as §1, §2, §3, §9, §4, §5, §10

The mark [8] stands for this setting: 48 h, pH 6.0 modified GAM broth, anaerobic, 37° C., 2 days (Example 1).
The mark [9] stands for this setting: 72 h, pH 5.0, estimated from the growth on day 3.
The mark [10] stands for this setting: 72 h, pH 5.5, estimated from the growth on day 3.
Where [11] appears, read: 96 h, pH 5.0, estimated from the growth on day 4.
The mark [12] stands for this setting: pH 5.0, estimated from the growth on day 3.

Consider `CCCCCCCCCCCCCC(=O)O` [Myristic acid (C14:0), Myristic acid], for which the MIC is 15.6 µg/mL (≈ 68.3 µM) in experiment [1] (setting [8]); 31.3 µg/mL (≈ 137 µM) in experiment [1] (setting [9]); 15.6 µg/mL (≈ 68.3 µM) in experiment [1] (pH 5.5); 31.3 µg/mL (≈ 137 µM) in experiment [1] (pH 6.5); 250 µg/mL (≈ 1090 µM) in experiment [1] (pH 7.0); 250 µg/mL (≈ 1090 µM) in experiment [2]. In addition, the MIC in experiment [4] is 31.3 µg/mL (≈ 137 µM); in experiment [5] (setting [8]), 250 µg/mL (≈ 1090 µM); in experiment [5] (setting [10]), more than 1000 µg/mL; in experiment [5] (setting [11]), more than 1000 µg/mL; in experiment [5] (pH 6.5), 250 µg/mL (≈ 1090 µM); in experiment [5] (pH 7.0), 500 µg/mL (≈ 2190 µM). Further, the MIC in experiment [6] is 15.6 µg/mL (≈ 68.3 µM); in experiment [7] (setting [8]), 15.6 µg/mL (≈ 68.3 µM); in experiment [7] (setting [9]), 15.6 µg/mL (≈ 68.3 µM); in experiment [7] (pH 5.5) it was 15.6 µg/mL (≈ 68.3 µM); in experiment [7] (pH 6.5), 125 µg/mL (≈ 547 µM); in experiment [7] (pH 7.0), 250 µg/mL (≈ 1090 µM). The same compound displayed a Strain-selective antibacterial activity in experiment [3] of 8.5.
For `CCCCCCCCCCCCCCCC(=O)O` [Palmitic acid (C16:0), Palmitic acid], the MIC in experiment [1] (setting [8]) was 7.81 µg/mL (≈ 30.5 µM); in experiment [1] (setting [9]), more than 1000 µg/mL; in experiment [1] (pH 5.5), 62.5 µg/mL (≈ 244 µM); in experiment [1] (pH 6.5), 3.9 µg/mL (≈ 15.2 µM); in experiment [1] (pH 7.0), 15.6 µg/mL (≈ 60.8 µM); in experiment [2], more than 1000 µg/mL. Also, the MIC in experiment [4] is 62.5 µg/mL (≈ 244 µM); in experiment [5] (setting [8]), more than 1000 µg/mL; in experiment [5] (setting [10]), more than 1000 µg/mL; in experiment [5] (setting [11]) it was more than 1000 µg/mL; in experiment [5] (pH 6.5) it was more than 1000 µg/mL; in experiment [5] (pH 7.0), 1000 µg/mL (≈ 3900 µM). The MIC is 62.5 µg/mL (≈ 244 µM) in experiment [6]; 7.81 µg/mL (≈ 30.5 µM) in experiment [7] (setting [8]); more than 1000 µg/mL in experiment [7] (setting [9]); 62.5 µg/mL (≈ 244 µM) in experiment [7] (pH 5.5); 125 µg/mL (≈ 487 µM) in experiment [7] (pH 6.5); 62.5 µg/mL (≈ 244 µM) in experiment [7] (pH 7.0). In experiment [1] (setting [12]), the “MIC against acne bacterium strain HL043PA1 strain (RT5)” value was more than 1000 µg/mL. The compound further yielded a Strain-selective antibacterial activity in experiment [3] of more than 9.5. Further, the “MIC against acne bacterium strain HL053PA1 strain (RT4)” value in experiment [7] (setting [12]) was more than 1000 µg/mL.
With `CCCCCCCCCCCCCCC(=O)O` [Pentadecanoic acid (C15:0), Pentadecanoic acid], the MIC in experiment [1] (setting [8]) was 1.95 µg/mL (≈ 8.04 µM); in experiment [1] (setting [9]), 15.6 µg/mL (≈ 64.4 µM); in experiment [1] (pH 5.5), 3.9 µg/mL (≈ 16.1 µM); in experiment [1] (pH 6.5), 1.95 µg/mL (≈ 8.04 µM); in experiment [1] (pH 7.0) it was 3.9 µg/mL (≈ 16.1 µM); in experiment [2] it was 250 µg/mL (≈ 1030 µM). Besides, the MIC was 3.9 µg/mL (≈ 16.1 µM) in experiment [4]; 250 µg/mL (≈ 1030 µM) in experiment [5] (setting [8]); more than 1000 µg/mL in experiment [5] (setting [10]); more than 1000 µg/mL in experiment [5] (setting [11]); 250 µg/mL (≈ 1030 µM) in experiment [5] (pH 6.5); 1000 µg/mL (≈ 4130 µM) in experiment [5] (pH 7.0). Also, the MIC in experiment [6] is 3.9 µg/mL (≈ 16.1 µM); in experiment [7] (setting [8]) it was 1.95 µg/mL (≈ 8.04 µM); in experiment [7] (setting [9]) it was 7.81 µg/mL (≈ 32.2 µM); in experiment [7] (pH 5.5), 3.9 µg/mL (≈ 16.1 µM); in experiment [7] (pH 6.5), 3.9 µg/mL (≈ 16.1 µM); in experiment [7] (pH 7.0) it was 3.9 µg/mL (≈ 16.1 µM). This compound also registered a Strain-selective antibacterial activity in experiment [3] of 64.
Consider `CCCCCCCCCCCCCCCCC(=O)O` [Heptadecanoic acid (C17:0), Heptadecanoic acid], for which the MIC in experiment [1] (setting [8]) is 7.81 µg/mL (≈ 28.9 µM); in experiment [1] (setting [9]) it was more than 1000 µg/mL; in experiment [1] (pH 5.5), 15.6 µg/mL (≈ 57.7 µM); in experiment [1] (pH 6.5), 3.9 µg/mL (≈ 14.4 µM); in experiment [1] (pH 7.0), 7.8 µg/mL (≈ 28.8 µM); in experiment [2], more than 1000 µg/mL. The MIC in experiment [4] was 62.5 µg/mL (≈ 231 µM); in experiment [5] (setting [8]), more than 1000 µg/mL; in experiment [5] (setting [10]) it was more than 1000 µg/mL; in experiment [5] (setting [11]) it was more than 1000 µg/mL; in experiment [5] (pH 6.5), more than 1000 µg/mL; in experiment [5] (pH 7.0), 1000 µg/mL (≈ 3700 µM). Moreover, the MIC in experiment [6] was 62.5 µg/mL (≈ 231 µM); in experiment [7] (setting [8]) it was 7.81 µg/mL (≈ 28.9 µM); in experiment [7] (setting [9]), more than 1000 µg/mL; in experiment [7] (pH 5.5), 15.6 µg/mL (≈ 57.7 µM); in experiment [7] (pH 6.5), 31.3 µg/mL (≈ 116 µM); in experiment [7] (pH 7.0) it was 62.5 µg/mL (≈ 231 µM). In experiment [1] (setting [12]), the “MIC against acne bacterium strain HL043PA1 strain (RT5)” value was more than 1000 µg/mL. For the same compound, in experiment [3], the Strain-selective antibacterial activity was more than 11. For the same compound, the “MIC against acne bacterium strain HL053PA1 strain (RT4)” value in experiment [7] (setting [12]) is more than 1000 µg/mL.

One may read the MIC as the lowest concentration that inhibits growth of the organism.
